# Data as given in paper PMC12814167, “Optimizing Stability in Dynamic Small-Molecule Binding Proteins” (Journal of the American Chemical Society, 2025).
# Like-named read-outs stand apart in the source and are kept apart here.
# B1: LAO.0: wild type L-lysine/L-arginine/L-ornithine binding protein LAO, Salmonella typhimurium, used as control (protein, UniProt P02911 23-260, looked up)
# Lysine/arginine/ornithine-bind …: ALPQTVRIGTDTTYAPFSSKDAKGEFIGFDIDLGNEMCKRMQVKCTWVASDFDALIPSLKAKKIDAIISSLSITDKRQQEIAFSDKLYAADSRLIAAKGSPIQPTLESLKGKHVGVLQGSTQEAYANDNWRTKGVDVVAYANQDLIYSDLTAGRLDAALQDEVAASEGFLKQPAGKEYAFAGPSVKDKKYFGDGTGVGLRKDDTELKAAFDKALTELRQDGTYDKMAKKYFDFNVYGD
# B2: PotF.0: wild type putrescine-binding protein PotF, Escherichia coli (strain K12), used as control (protein, UniProt P31133 27-370, looked up)
# Putrescine-binding …: AEQKTLHIYNWSDYIAPDTVANFEKETGIKVVYDVFDSNEVLEGKLMAGSTGFDLVVPSASFLERQLTAGVFQPLDKSKLPEWKNLDPELLKLVAKHDPDNKFAMPYMWATTGIGYNVDKVKAVLGENAPVDSWDLILKPENLEKLKSCGVSFLDAPEEVFATVLNYLGKDPNSTKADDYTGPATDLLLKLRPNIRYFHSSQYINDLANGDICVAIGWAGDVWQASNRAKEAKNGVNVSFSIPKEGAMAFFDVFAMPADAKNKDEAYQFLNYLLRPDVVAHISDHVFYANANKAATPLVSAEVRENPGIYPPADVRAKLFTLKVQDPKIDRVRTRAWTKVKSGK
# What was measured:
# [1] = biological target: LAO.1; assay: Isothermal titration calorimetry of the purified protein with its cognate ligand at 25 °C in SEC running buffer (25 mM sodium phosphate, 500 mM NaCl, pH 7.4), fitted with a one-site binding model.; conditions: SD, n = 3
# Protocol: (§1) Ligands were dissolved in the specific buffer that was used in the size-exclusion chromatography (SEC) run of each protein purification (stored at −20 °C and thawed on the day of use). All protein and ligand samples were degassed and the temperature equilibrated to 25 °C for at least 10 min using a degassing station (TA Instruments). 400 μL of protein samples was loaded into the sample cell of a low volume AffinityITC machine with gold cell (TA Instruments) and ligand solutions were added into the injection syringe (protein and ligand concentrations can be found in Table S5). ITC measurements were performed at 25 °C with 20 injections of 2.5 μL (one initial injection of 0.5 μL was excluded from analysis), an adaptive injection interval, and stirring rate of 125 rpm. Subtractions of constant heat of dilution values for each ligand, peak integration, and fitting with a one-site binding model were done with NanoAnalyze (TA Instruments). The reported errors reflect the standard deviation of three technical replicas.
# [2] = biological target: LAO.2; assay: as above; conditions: SD, n = 3
# Protocol: as §1
# [3] = biological target: LAO.4; assay: as above; conditions: SD, n = 3
# Protocol: as §1
# [4] = biological target: LAO.3; assay: as above; conditions: SD, n = 3
# Protocol: as §1
# [5] = biological target: T1, LAO.0 (Salmonella enterica, UniProt P02911); assay: as above; conditions: SD, n = 3
# T1 construct: gene argT
# Protocol: as §1
# [6] = biological target: PotF.2; conditions: SD, n = 3
# Protocol: as §1
# [7] = biological target: PotF.4; conditions: SD, n = 3
# Protocol: as §1
# [8] = biological target: PotF.3 (Escherichia coli, UniProt P31133, A339P/E108N/E331D/F129Y/F266Y/K202N/N154D/S178A/S252A/S265A/T94S/V186I); assay: Isothermal titration calorimetry of the purified protein with its cognate ligand at 25 °C in SEC running buffer (25 mM sodium phosphate, 500 mM NaCl, pH 7.4), fitted with a one-site binding model.; conditions: SD, n = 3
# Protocol: as §1
# [9] = biological target: PotF.0 (Escherichia coli, UniProt P31133); assay: as above; conditions: SD, n = 3
# Protocol: as §1
# [10] = biological target: PotF.1 (Escherichia coli, UniProt P31133, A203P/A327P/A339P/E108N/E331D/F129Y/F266Y/F313Y/K122Q/K202N/M131I/N154D/S178A/S252A/S265A/S267T/S326N/T322L/V186I/V264I/V305M/V46I); assay: as above; conditions: SD, n = 3
# Protocol: as §1
# [11] = biological target: TphC.3; assay: as above; conditions: SD, n = 3
# Protocol: as §1
# [12] = biological target: TphC.0; assay: as above; conditions: SD, n = 3
# Protocol: as §1
# [13] = biological target: TphC.1; assay: as above; conditions: SD, n = 3
# Protocol: as §1
# [14] = biological target: TphC.2; assay: as above; conditions: SD, n = 3
# Protocol: as §1
# [15] = biological target: TphC.4; assay: as above; conditions: SD, n = 3
# Protocol: as §1
# [16] = biological target: MBP.4; assay: as above; conditions: SD, n = 3
# Protocol: as §1
# [17] = biological target: MBP.3; assay: as above; conditions: SD, n = 3
# Protocol: as §1
# [18] = biological target: MBP.2; assay: as above; conditions: n = 3
# Protocol: as §1
# [19] = biological target: MBP.1; assay: as above; conditions: SD, n = 3
# Protocol: as §1
# [20] = parameters: method as in previously published binding constants; conditions: wild type LAO; ref previously published binding constants; read-out: binding constant; cited from earlier work
# [21] = CD thermal melt (Tmelt) of apo protein; format: physicochemical; conditions: CD at 222 nm, 20 to 95 °C, 1 °C/min, apo protein 0.2 mg/mL, pH 7.4, error from fit uncertainty
# Protocol: To remove salts, protein samples were dialyzed overnight against 2 L of CD buffer (25 mM NaH2PO4/Na2HPO4, pH 7.4) using a 10 kDa molecular weight cutoff. Aggregated protein was removed by centrifugation at 15 000g for 5 min using a tabletop centrifuge (Eppendorf 5427R). Next, the protein concentration was adjusted to 0.3 mg/mL and verified photometrically. 200 μL of protein samples were mixed with either 100 μL of CD buffer or 100 μL of ligand solution (300 μM stocks of ligand solubilized in CD buffer) to reach a final concentration of 100 μM for the ligands and 0.2 mg/mL for the protein. CD spectra and thermal melt experiments were obtained on a JASCO J-1500 instrument using a glass cuvette with a 1 mm path length. For CD spectra, the following settings were used: wavelengths 240–190 nm, bandwidth 1 nm, response time 2 s, data pitch 0.1 nm, scanning speed 100 nm/min, and ten accumulations (for buffer controls only one accumulation was used). For Tmelt measurements, the following settings were used: wavelength of 222 nm, temperature range from 20 to 95 °C controlled by a Pelletier AWC100 (Julabo) using a slope of 1 °C/min, a bandwidth of 1 nm, and a response time of 2 s. Raw CD data were normalized by subtraction of the respective buffer data and subsequent conversion of the measured signal in millidegree to mean residue molar ellipticity. To obtain the apparent melting temperature T m, thermal melt data were fit using a sigmoidal equation according to Niklasson et al. The error plotted stems from the fit function uncertainty.
# [22] = Isothermal titration calorimetry, LAO variants with L-lysine; format: binding; conditions: ITC, 25 °C
# Excerpt: buffer-lysine 1 - 3 - 300
# Supporting Table 5. Protein and ligand concentrations for ITC measurements
# [23] = Isothermal titration calorimetry, PotF variants with putrescine; format: binding; conditions: ITC, 25 °C
# Excerpt: Protein Design ID Experimental Protein Ligand target repeat concentration concentration (µM) […]
# [24] = parameters: method as in previously published binding constants; conditions: wild type PotF; ref previously published binding constants; read-out: binding constant; cited from earlier work
# PotF.3, sequence (P31133 27-370 T94S/E108N/F129Y/N154D/S178A/V186I/K202N/S252A/S265A/F266Y/E331D/A339P): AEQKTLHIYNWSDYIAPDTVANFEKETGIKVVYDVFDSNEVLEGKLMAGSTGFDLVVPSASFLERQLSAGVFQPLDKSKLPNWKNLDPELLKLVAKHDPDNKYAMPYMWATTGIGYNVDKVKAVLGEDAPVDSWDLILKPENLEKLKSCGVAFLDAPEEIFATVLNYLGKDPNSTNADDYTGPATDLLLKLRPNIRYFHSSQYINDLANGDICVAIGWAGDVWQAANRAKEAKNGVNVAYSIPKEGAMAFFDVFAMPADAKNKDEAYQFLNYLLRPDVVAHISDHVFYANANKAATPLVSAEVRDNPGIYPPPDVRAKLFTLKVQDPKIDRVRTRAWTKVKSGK
# PotF.1, sequence (P31133 other isoform, or with tags, fused parts or gaps with the stated changes): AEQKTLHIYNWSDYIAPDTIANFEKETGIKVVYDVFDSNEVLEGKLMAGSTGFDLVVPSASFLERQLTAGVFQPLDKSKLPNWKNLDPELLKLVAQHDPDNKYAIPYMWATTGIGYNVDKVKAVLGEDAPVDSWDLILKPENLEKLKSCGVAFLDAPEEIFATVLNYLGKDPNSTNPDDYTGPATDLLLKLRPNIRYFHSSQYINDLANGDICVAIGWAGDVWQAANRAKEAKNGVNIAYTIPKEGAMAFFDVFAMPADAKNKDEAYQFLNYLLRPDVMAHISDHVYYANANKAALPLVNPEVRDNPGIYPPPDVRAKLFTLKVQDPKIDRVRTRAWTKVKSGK
molecule,measurement,setting,value
NCCCC[C@H](N)C(=O)O [L-lysine],Kd,[1],2500 ± 211 nM
same,Kd,[2],612 ± 56 nM
same,Kd,[3],150 ± 21 nM
same,Kd,[4],824 ± 18 nM
same,Kd,[5],93 ± 35 nM
NCCCCN [putrescine],Kd,[6],42 ± 12 nM
same,Kd,[7],103 ± 10 nM
same,Kd,[8],101 ± 17 nM
same,Kd,[9],42 ± 3 nM
same,Kd,[10],479 ± 12 nM
O=C(O)c1ccc(C(=O)O)cc1 [terephthalic acid],Kd,[11],716 ± 91 nM
same,Kd,[12],1180 ± 250 nM
same,Kd,[13],5750 ± 709 nM
same,Kd,[14],627 ± 69 nM
same,Kd,[15],282 ± 39 nM
maltose,Kd,[16],2960 ± 675 nM
same,Kd,[17],450 ± 44 nM
same,Kd,[18],< 10000 nM
same,Kd,[19],1310 ± 293 nM
B1,Kd,[20],232 ± 106 nM
same,apparent T m,[21],47 ± 0.1 °C
same,apparent T m,[21]; listed as LAO,47 °C
same,-TΔS,[22],3.56 ± 0.382 kcal/mol
same,ΔG,[22],-9.61 ± 0.22 kcal/mol
same,ΔH,[22],-13.2 ± 0.22 kcal/mol
B2,-TΔS,[23],11.2 ± 0.287 kcal/mol
same,ΔG,[23],-10.1 ± 0.048 kcal/mol
same,ΔH,[23],-21.2 ± 0.263 kcal/mol
same,Kd,[24],68 ± 40 nM
same,apparent T m,[21],63 ± 0.4 °C
same,apparent T m,[21]; listed as PotF,63 °C
